Data reported in patent publication US20120115754A1, “METHOD FOR DIAGNOSING AND/OR TYPING RENAL CELL CARCINOMA” (priority 2009, published 2012).

Legend:
[1] = test system: tumor kidney (RCC) tissue lysate, tyrosine kinase activity; assay: Peptide microarray (PamChip) kinase activity profiling of tumor kidney lysate with kinase inhibitor added to the lysate; type: biochemical, human
Experimental: (§1) Both normal and tumor kidney tissue were derived from resection material immediately after surgery. These tissues were snap-frozen and were stored at −85° C. The tissues were cut in slices of 10 μm and stored. For protein extraction 6 slices were lysed in 100 μL of Mammalian Protein Extraction Buffer (M-PER), a lysis buffer containing HALT protease and phosphatase inhibitors, for 60 minutes on ice. The protein concentration was determined for each sample and for the analysis on a peptide microarray comprising 144 peptides typically 5 μg of protein was used. […]
(§2) To assess the effect of a kinase inhibitor, the kinase inhibitors sorafinib or sunitinib were added to the lysate before application onto the peptide microarray. During 60 cycles of pumping the lysate reaction mixture through the array, peptide phosphorylation was detected by the fluorescently labelled PY20 anti-phosphotyrosine antibody present in the lysate reaction mixture. Real time data were obtained by measuring fluorescence of the bound anti-phosphotyrosine antibody after each 5 cycles. […] Signals for each spot on the image were quantified. Image quantification and data processing was conducted with dedicated PamGene software (Evolve and Bionavigator). […]

[2] = test system: normal kidney tissue (NK) lysate, tyrosine kinase activity; assay: Peptide microarray (PamChip) kinase activity profiling of normal kidney lysate with kinase inhibitor added to the lysate; type: biochemical, human
Experimental: as §1, §2

- phosphorylation pattern compared to the control (DMSO) ([1]; lysate of tumor kidney (RCC) tissue of one patient, inhibitor pipetted into lysate, FIG. 4 heatmap): decreased phosphorylation pattern
- inhibition of peptide phosphorylation, peptides indicated by downwards arrows ([1]; tumor tissue, on-chip treatment, in comparison to other peptides, FIG. 4): highly inhibited
- phosphorylation pattern compared to the control (DMSO) ([2]; lysate of normal kidney tissue (NK) of one patient, inhibitor pipetted into lysate, FIG. 4 heatmap): decreased phosphorylation pattern
- inhibition of peptide phosphorylation, peptides indicated by upward arrows ([2]; normal tissue, on-chip treatment, candidate markers for off-target effects, FIG. 4): show inhibition
Structure (SMILES): CNC(=O)c1cc(Oc2ccc(NC(=O)Nc3ccc(Cl)c(C(F)(F)F)c3)cc2)ccn1 [sorafinib, sorafenib]
